This is an account of results in patent publication US10744127B2, “MDR-reversing 8-hydroxy-quinoline derivatives” (MAGYAR TUDOMÁNYOS AKADÉMIA TERMÉSZETTUDOMÁNYI KUTATÓKÖZPONT, priority 2016, dated 2020).

Molecules are shown by their SMILES. Where two headings read alike, the source gives them in different places.

Data set [1] concerns A431 and A431-B1 cell lines. Description: Selective toxicity in A431 and A431-B1 cell lines. It counts as cell-based, human. As to conditions: A431 versus P-gp-transfected A431-B1. The method, then:
(§1) Cell survival was measured by the PrestoBlue® Cell Viability Reagent (Life Technologies, USA). Cells were seeded in 100 μl medium at a density of 5000 cells/well in 96-well plates; the serially diluted drug was added the following day. Cells were then incubated for 72 hours at 37° C. in 5% CO2; the drug containing medium was removed, and the PrestoBlue® reagent was added according to the manufacturer's instructions. Fluorescence of the cells was measured by a Perkin Elmer EnSpire multimode plate reader or Perkin Elmer Victor X3 microplate reader. Data were background corrected and normalized to untreated cells. Curves were fitted with the help of Prism software using the sigmoidal dose-response model. Curve fit statistics were used to determine IC50 values. Differences between the IC50 values of the respective cell lines were analyzed by two-sided […] unpaired Student's t test and results were considered statistically significant at a P value of <0.05 (*) or 0.01 (**).
Data on selective toxicity (expressed as Selectivity Ratio, SR) in two MDR models engineered by retroviral transfection of P-glycoprotein (A431/A431-B1 and MDCK II/MDCK II B1 cell lines) are presented in Table 3 and Table 4.
A431 is a human epidermoid carcinoma cell line. Its derivative, the A431-B1 cell line expresses P-gp due to retroviral transfection of the mdr1 gene Türk, D. et al (Türk, D. et al., 2009). MDCK II is a canine kidney cell line. MDCK II B1 was created by inserting the mdr1 gene with transposons [Pape V F S et al. 2015] Both cell express P-gp stably, and show a stable MDR phenotype. Culture conditions were identical as in the case of MES-SA cells.

The subject of another data set is MES-SA/Dx5 cell line. Description: Cytotoxicity, PrestoBlue cell viability assay, MES-SA/Dx5. It counts as cell-based. Conditions: Homo sapiens. The method, then:
(§2) The human uterine sarcoma cell line MES-SA and its doxorubicin resistant counterpart MES-SA/Dx5 were obtained from ATCC (MES-SA: No. CRL-1976™, MES-SA-Dx5: No. CRL-1977™). MES-SA/Dx5 cells express high levels of P-gp, and therefore are multidrug resistant (MDR). Cells were cultured in DMEM supplemented with 10% FBS, 5 mmol/L glutamine and 50 unit/mL penicillin and streptomycin (Life Technologies).
as §1

Data set [2] has as its system MES-SA and multidrug-resistant MES-SA/Dx5 cell line. Description: Selective toxicity (ratio of IC50 in MES-SA to IC50 in MES-SA/Dx5) and activity index. Conditions: MES-SA / MES-SA/Dx5 (Table 2b). It counts as cell-based, human.
Excerpt: Compounds having P-gp potentiated MDR-selective activity can be characterized by their inhibitory concentration (IC) with regard to a specific cancer cell line. Usually the IC value is given at a certain percentage ratio of non-inhibited molecules or surviving cells. For example an IC20 value of a compound on a cell line means that at this inhibitory concentration of the compound 80% of the cells are killed whereas 20% of the cells are still viable. A further characteristic of MDR-selective drugs is the selectivity ratio (SR), which is the ratio of the IC value measured in a non-multidrug resistant cell line to (i.e. divided by) the IC value measured in the corresponding transformed, multidrug-resistant cell line. The inverse value, the resistance ratio (RR) is calculated as the ratio of a compound's IC value against a multidrug resistant cell line divided by the parallel IC value of the same compound against a control non-multidrug resistant cell line. The Activity Index (AI) is calculated here as the ratio of the compound's selectivity ratio (SR) and the compound's IC50 value against the resistant cell. The AI reflects the level of simultaneous toxicity and selectivity towards multidrug-resistant cancer cells.
as §2, §1
Selectivity towards multidrug-resistant cells is expressed as the ratio of the IC50 value measured in the parental MES-SA and multidrug-resistant MES-SA/Dx5 cell line (Selectivity Ratio, SR).
A novel characteristic of the compounds presented in this invention is that they exert their selective cytotoxicity at low IC50 values. Simultaneous toxicity and selectivity towards multidrug-resistant cancer cells is reflected by the Activity Index (AI) of the compounds, which is the ratio of the selectivity ratio (SR) and the IC50 value on the resistant cell line.

Data set [3] deals with P-gp-expressing MES-SA/Dx5 cells. Description: P-gp switch assay (Calcein AM). As to conditions: MES-SA/Dx5, single dose at IC20 (killing 80% of the cells), surviving population at 80% confluence, Calcein AM. It counts as cell-based, human. As for the experimental part:
One million P-gp-expressing MES-SA/Dx5 cells were plated in a T25 cell culture flask. After 24 hours the compound of interest was added directly to the cells at a concentration corresponding to the IC20 value (killing 80% of the cells). After 5 days the culture media was removed, the cells were washed with PBS and the culture medium was exchanged. Cells were monitored daily and the recovery was recorded. The medium was changed every 5 days until the confluence of the cells reached 80%. At 80% confluence the cells were removed by gentle trypsinization, counted by an automated cell counter and stained with Calcein AM, a cellular dye able to detect the function of P-gp (Homolya 1993). P-gp-positivity was evaluated based on the ability of P-gp-expressing cells to extrude Calcein AM.

Setting [4] is: MES-SA/Dx5 (Table 2b), read-out: IC50 (μM) Dx5.
Where [5] appears, read: Mes-sa/Dx5 cell line, PrestoBlue assay, 72 hours (Table 1), read-out: IC50.

Take `C/C(=N\Nc1ccc2ccc(CN3CCCCC3)c(O)c2n1)c1ccccc1O` [Example 4, (E/Z)-2-(2-(1-(2-Hydroxyphenyl)ethylidene)hydrazinyl)-7-(piperidin-1-ylmethyl)quinolin-8-ol]: the melting point was 184 to 187 °C. Moreover, the “Selectivity Ratio (SR) (A431/A431-B1)” value in data set [1] stood at 11.7. Besides, the IC50 in the data set on MES-SA/Dx5 cell line (setting [4]) is 0.16 µM. In addition, the 50% inhibitory concentration (IC50) with MES-SA/Dx5 cell line (setting [5]) was 0.16 µM. The SR in data set [2] is listed as 5.9.

As for `Oc1c(C2NCCc3ccccc32)cc(Br)c2cccnc12` (stereo not drawn) [Example 14, 5-Bromo-7-(1,2,3,4-tetrahydroisoquinolin-1-yl)quinolin-8-ol], the “Selectivity Ratio (SR) (A431/A431-B1)” value in data set [1] turned out to be 13.7. The half-inhibitory concentration (IC50) in the data set on MES-SA/Dx5 cell line (setting [4]) and in the data set on MES-SA/Dx5 cell line (setting [5]) was 0.13 µM throughout. In data set [2], the SR is given as 7.8.

Take `Oc1c(C2NCCc3ccccc32)cc(Cl)c2cccnc12` (stereo not drawn) [Example 13, 5-Chloro-7-(1,2,3,4-tetrahydroisoquinolin-1-yl)quinolin-8-ol]: in data set [3], the “Fraction of P-gp-negative cells (P3) in the population” value is listed as 88.00% and the “Fraction of P-gp-positive cells (P4) in the population” value was 12.00%. Moreover, the IC50 in the data set with MES-SA/Dx5 cell line (setting [5]) worked out at 0.127 µM.

The compound `C/C(=N\Nc1ccc2cccc(O)c2n1)c1ccccc1O` [Example 1, (E/Z)-2-(2-(1-(2-Hydroxyphenyl)ethylidene)hydrazinyl)quinolin-8-ol] had a melting point of 225 to 228 °C.

For the compound `COc1ccccc1CNCc1cc(Br)c2cccnc2c1O` [Example 8, 5-Bromo-7-(((2-methoxybenzyl)amino)methyl)quinolin-8-ol], the melting point was in the range of 135 to 137 °C. For the same compound, the IC50 in the data set on MES-SA/Dx5 cell line (setting [4]) turned out to be 0.16 µM. Besides, in the data set with MES-SA/Dx5 cell line (setting [5]), the IC50 came out at 0.161 µM. Besides, the SR in data set [2] came out at 13.5.

As for `O=[N+]([O-])c1cc(C2NCCc3sccc32)c(O)c2ncccc12` (stereo not drawn) [Example 19, 5-Nitro-7-(4,5,6,7-tetrahydrothieno[3,2-c]pyridin-4-yl)quinolin-8-ol], the “Selectivity Ratio (SR) (A431/A431-B1)” value in data set [1] turned out to be 24.7.

Consider `O=C1NC2CCCCC2NC1c1cc(Cl)c2cccnc2c1O` (mixture of isomers) [Example 22, (3R,4aS,8aS)-3-(5-Chloro-8-hydroxyquinolin-7-yl)octahydroquinoxalin-2(1H)-one and (3S,4aS,8aS)-3-(5-chloro-8-hydroxyquinolin-7-yl)octahydroquinoxalin-2(1H)-one], for which the “Selectivity Ratio (SR) (A431/A431-B1)” value in data set [1] was determined as 18.8.

`COc1ccc(CNCc2cc(Br)c3cccnc3c2O)cc1` [Example 10, 5-Bromo-7-(((4-methoxybenzyl)amino)methyl)quinolin-8-ol] came in with a melting point of 129 to 132 °C. Further, the “Selectivity Ratio (SR) (A431/A431-B1)” value in data set [1] is 11.2.

For the compound `Oc1c(CNC2CCCCC2)cc(Cl)c2cccnc12` [Example 6, 5-Chloro-7-((cyclohexylamino)methyl)quinolin-8-ol], the melting point was in the range of 123 to 125 °C. Moreover, in data set [1], the “Selectivity Ratio (SR) (A431/A431-B1)” value came to 11.5.

As to `Oc1c(C2NCCc3sccc32)ccc2cccnc12` (stereo not drawn) [Example 18, 7-(4,5,6,7-Tetrahydrothieno[3,2-c]pyridin-4-yl)quinolin-8-ol], in data set [3], the “Fraction of P-gp-negative cells (P3) in the population” value is 80.6% and the “Fraction of P-gp-positive cells (P4) in the population” value is listed as 19.40%. Also, the IC50 in the data set on MES-SA/Dx5 cell line (setting [5]) was 0.157 µM.

In turn, `C/C(=N\Nc1ccc2cccc(O)c2n1)c1ccccn1` [Example 2, (E/Z)-2-(2-(1-(Pyridine-2-yl)ethylidene)hydrazinyl)quinolin-8-ol] had a melting point of 213 to 214 °C.
